US9408854B2, “Methods and systems for pharmacogenomic treatment of cardiovascular conditions” (ROSTAQUO S.P.A., priority 2009, dated 2016)

System: hypertensive patients
Experiment: Pharmacogenomic study: change of office systolic blood pressure (DSBP5_0) after 5 weeks of rostafuroxin vs placebo, by genotype
Format: in vivo, human
Procedure: A pharmacogenomic study was performed to ascertain the effect of genetic variations on an individual response to rostafuroxin. The sample for the pharmacogenomic study consisted of 342 individuals that were genotyped with the Human1M array from Illumina using Human1M Duo CHIP genotyping Bead Chip according to procedure described in [Ref. 10, 11, 12]. Among the individuals, 169 were administered the placebo treatment and 173 the active drug (rostafuroxin) in the first period (5 weeks) with demographics as in [Ref 13]. In particular, patients were randomized to one of the following oral doses of rostafuroxin: 0.05, 0.15, 0.5, 1.5, or 5 mg/day for 5 weeks. Each dose had to be compared to a placebo in a crossover design.
For the above sample of individuals a genetic association analysis, was performed to associate the phenotype of the tested individuals with the SNPs detected in the individuals. The selected phenotype of interest was the blood pressure response. The SNPs selected for detection were the 1111170 SNPs on autosomal chromosomes of the individual.
The genetic analysis was performed according to a quantitative genetic association design where the phenotype of interest is a quantitative variable (QT), and the variables (factors) affecting the distribution of the phenotype of interest are SNPs, therapy (placebo, rostafuroxin) and the SNP*therapy interaction.
In particular, the quantitative phenotype selected for the statistical analyses was the difference in mmHg between the office Systolic Blood Pressure (SBP) at the end of first treatment period (SBP_5) and the office Systolic Blood Pressure at baseline after one month of run-in (SBP_0) and is herein also identified as DSBP5_0. The selected QT phenotype and other factors affecting distribution of the phenotype of interest were then analyzed according to the following quantitative trait interaction test Phenotype=SNP+therapy+SNP*therapy as illustrated in further details below.
In particular, in Table 2 the descriptive statistics of DSBP5_0 for the entire sample and for the patients treated with placebo and rostafuroxin are listed. The rather modest basal level of SBP can be explained in view of the recruitment of patients with “mild” hypertension (SBP range 140-179 mmHg), required by the inclusion of a placebo arm.
Those SNPs were further selected to identify the genotypes with the largest response to rostafuroxin compared to placebo by performing a Statistical ANOVA analysis using STATA software in placebo and rostafuroxin with DSBP5_0 as dependent variable and the candidate significant SNPs as independent variables. In particular, to select the genotypes of the interactions between two SNPs with the largest response to rostafuroxin compared to placebo, the Applicants performed an ANOVA statistics in placebo and rostafuroxin with DSBP5_0 as dependent variable and the interaction s between SNPs as independent variables. The Applicants report an example of this procedure in FIG. 5: interaction between rs8899 and rs4678. The Applicants selected the interaction between the genotype AA of rs8899 and the genotype BB of rs4678 because it presents the greatest remarkable decrement in the therapy group and not in the placebo group.
In particular, to select the genotypes with the largest response to rostafuroxin compared to placebo, the Applicants performed an ANOVA statistics (oneway) in placebo and rostafuroxin with DSBP5_0 as dependent variable and the significant SNPs as independent variables.

[1] = GWS SNP ga001619 (PIGR) genotype 1
[2] = GWS SNP rs188334 (FAIM3) genotype 1
[3] = GWS SNP rs721207 (LOC131691) genotype 3
[4] = GWS SNP rs748140 (PIGR) genotype 1
[5] = GWS SNP rs1110446 (TRIM31) genotype 1
[6] = GWS SNP rs1110446 (TRIM31) genotype 2
[7] = GWS SNP rs1362126 (HLA-F) genotype 3
[8] = GWS SNP rs1901139 (LOC644192) genotype 3
[9] = GWS SNP rs1998394 (LOC728316) genotype 3
[10] = GWS SNP rs2275531 (PIGR) genotype 3
[11] = GWS SNP rs2345088 (KCNS3) genotype 1
[12] = GWS SNP rs2345088 (KCNS3) genotype 2
[13] = GWS SNP rs2427832 (LOC649458) genotype 2
[14] = GWS SNP rs2461911 (LOC389970) genotype 1
[15] = GWS SNP rs2517718 (HLA-A) genotype 1
[16] = GWS SNP rs2555500 (LOC389174) genotype 1
[17] = GWS SNP rs2743951 (RP3-377H14.5) genotype 3
[18] = GWS SNP rs3087816 (SLC30A7) genotype 2
[19] = GWS SNP rs3893464 (HCG9) genotype 1
[20] = GWS SNP rs4710592 (RCADH5) genotype 3
[21] = GWS SNP rs4998662 (FAM46A) genotype 2
[22] = GWS SNP rs5013093 (HLA-G) genotype 1
[23] = GWS SNP rs6457110 (HCG9) genotype 1
[24] = GWS SNP rs6718282 (KCNS3) genotype 2
[25] = GWS SNP rs7216331 (COX10) genotype 2
[26] = GWS SNP rs7521668 (DPH5) genotype 1
[27] = GWS SNP rs7521668 (DPH5) genotype 2
[28] = GWS SNP rs8179654 (LOC642727) genotype 3

C[C@]12CC[C@H](O)C[C@H]1CC[C@@H]1[C@@H]2CC[C@]2(C)[C@@](O)(c3ccoc3)CC[C@]12O [rostafuroxin, 17β-(3-furyl)-5β-androstane-3β,14β,17α-triol]
higher response in blood pressure drop, low doses vs high doses (0.05 to 0.50 mg/day vs 1.5 to 5 mg/day): +50% | DELTA delta Therapy placebo [1]: 9.252 mmHg | DSBP5_0 therapy [1]: −13.615 mmHg | DELTA delta Therapy placebo [2]: 8.146 mmHg | DSBP5_0 therapy [2]: −11.82 mmHg | DELTA delta Therapy placebo [3]: 6.934 mmHg | DSBP5_0 therapy [3]: −11.58 mmHg | DELTA delta Therapy placebo [4]: 6.506 mmHg | DSBP5_0 therapy [4]: −11.28 mmHg | DELTA delta Therapy placebo [5]: 20.59 mmHg | DSBP5_0 therapy [5]: −16.37 mmHg | DELTA delta Therapy placebo [6]: 3.54 mmHg | DSBP5_0 therapy [6]: −10.13 mmHg | DELTA delta Therapy placebo [7]: 4.93 mmHg | DSBP5_0 therapy [7]: −10.29 mmHg | DELTA delta Therapy placebo [8]: 10.52 mmHg | DSBP5_0 therapy [8]: −12.11 mmHg | DELTA delta Therapy placebo [9]: 5.788 mmHg | DSBP5_0 therapy [9]: −10.51 mmHg | DELTA delta Therapy placebo [10]: 7.817 mmHg | DSBP5_0 therapy [10]: −12.18 mmHg | DSBP5_0 therapy (GWS SNP rs2326912 (TMEM200A) genotype 1): −11.7 mmHg | DELTA delta Therapy placebo [11]: 33.93 mmHg | DSBP5_0 therapy [11]: −30.5 mmHg | DELTA delta Therapy placebo [12]: 3.512 mmHg | DSBP5_0 therapy [12]: −10.69 mmHg | DELTA delta Therapy placebo [13]: 6.845 mmHg | DSBP5_0 therapy [13]: −10.38 mmHg | DELTA delta Therapy placebo [14]: 22.82 mmHg | DSBP5_0 therapy [14]: −20.6 mmHg | DELTA delta Therapy placebo [15]: 6.212 mmHg | DSBP5_0 therapy [15]: −11.83 mmHg | DELTA delta Therapy placebo [16]: 5.2 mmHg | DSBP5_0 therapy [16]: −10.52 mmHg | DELTA delta Therapy placebo [17]: 5.62 mmHg | DSBP5_0 therapy [17]: −11.17 mmHg | DELTA delta Therapy placebo [18]: 7.021 mmHg | DSBP5_0 therapy [18]: −13.044 mmHg | DELTA delta Therapy placebo [19]: 9.016 mmHg | DSBP5_0 therapy [19]: −10.99 mmHg | DELTA delta Therapy placebo [20]: 20.075 mmHg | DSBP5_0 therapy [20]: −23.825 mmHg | DELTA delta Therapy placebo [21]: 13.54 mmHg | DSBP5_0 therapy [21]: −15.81 mmHg | DELTA delta Therapy placebo [22]: 22.09 mmHg | DSBP5_0 therapy [22]: −20.49 mmHg | DELTA delta Therapy placebo [23]: 5.862 mmHg | DSBP5_0 therapy [23]: −10.35 mmHg | DSBP5_0 therapy (GWS SNP rs6718282 (KCNS3) genotype 1): −41.3 mmHg | DELTA delta Therapy placebo [24]: 13.825 mmHg | DSBP5_0 therapy [24]: −12.625 mmHg | DELTA delta Therapy placebo [25]: 13.91 mmHg | DSBP5_0 therapy [25]: −15.81 mmHg | DELTA delta Therapy placebo [26]: 28.95 mmHg | DSBP5_0 therapy [26]: −25 mmHg | DELTA delta Therapy placebo [27]: 7.021 mmHg | DSBP5_0 therapy [27]: −13.044 mmHg | DELTA delta Therapy placebo [28]: 8.442 mmHg | DSBP5_0 therapy [28]: −10.95 mmHg | DELTA delta Therapy placebo (GWS SNP rs9361863 (LOC728360) genotype 1): 19.6 mmHg
